# From publication PMC6009894, “Molecular modelling insights into a physiologically favourable approach to eicosanoid biosynthesis inhibition through novel thieno[2,3-b]pyridine derivatives” (Journal of Enzyme Inhibition and Medicinal Chemistry, 2018)
# Several values for one entry are separate records, joined by “and”; a condition that tells them apart may be missing. Equal entries are not always repeated.
# Experiments:
# [1] = target: T1, COX-2 (human) (Homo sapiens, UniProt P35354); assay: COX-2 (human) Inhibitor Screening Assay Kit (Cayman); type: biochemical
# T1 construct: purchased Cayman (Ann Arbor, MI) 701080
# T1 sequence (P35354 18-604): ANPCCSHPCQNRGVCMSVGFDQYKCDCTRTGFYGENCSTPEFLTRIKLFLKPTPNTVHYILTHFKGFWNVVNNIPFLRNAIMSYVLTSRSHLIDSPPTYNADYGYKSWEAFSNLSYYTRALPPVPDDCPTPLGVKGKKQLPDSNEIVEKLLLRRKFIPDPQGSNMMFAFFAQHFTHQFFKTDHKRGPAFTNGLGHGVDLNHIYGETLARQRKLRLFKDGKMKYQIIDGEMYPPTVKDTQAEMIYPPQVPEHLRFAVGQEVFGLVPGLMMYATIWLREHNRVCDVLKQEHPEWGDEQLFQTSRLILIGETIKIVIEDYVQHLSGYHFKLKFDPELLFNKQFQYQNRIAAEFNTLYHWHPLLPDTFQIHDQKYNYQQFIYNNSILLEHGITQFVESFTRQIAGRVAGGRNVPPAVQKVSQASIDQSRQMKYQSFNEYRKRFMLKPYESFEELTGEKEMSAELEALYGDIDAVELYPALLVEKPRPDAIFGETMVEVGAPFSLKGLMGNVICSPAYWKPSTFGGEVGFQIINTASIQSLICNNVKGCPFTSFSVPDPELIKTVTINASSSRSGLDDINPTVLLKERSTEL
# Source text: (§1) The used protocol was according to the manufacturer protocol guide and instructions using ELISA plate reader.
# [2] = target: T2, COX-1 (human) (Homo sapiens, UniProt P23219); assay: COX-1 (human) Inhibitor Screening Assay Kit (Cayman); type: biochemical
# T2 construct: purchased Cayman (Ann Arbor, MI) 701070
# T2 sequence (P23219 24-599): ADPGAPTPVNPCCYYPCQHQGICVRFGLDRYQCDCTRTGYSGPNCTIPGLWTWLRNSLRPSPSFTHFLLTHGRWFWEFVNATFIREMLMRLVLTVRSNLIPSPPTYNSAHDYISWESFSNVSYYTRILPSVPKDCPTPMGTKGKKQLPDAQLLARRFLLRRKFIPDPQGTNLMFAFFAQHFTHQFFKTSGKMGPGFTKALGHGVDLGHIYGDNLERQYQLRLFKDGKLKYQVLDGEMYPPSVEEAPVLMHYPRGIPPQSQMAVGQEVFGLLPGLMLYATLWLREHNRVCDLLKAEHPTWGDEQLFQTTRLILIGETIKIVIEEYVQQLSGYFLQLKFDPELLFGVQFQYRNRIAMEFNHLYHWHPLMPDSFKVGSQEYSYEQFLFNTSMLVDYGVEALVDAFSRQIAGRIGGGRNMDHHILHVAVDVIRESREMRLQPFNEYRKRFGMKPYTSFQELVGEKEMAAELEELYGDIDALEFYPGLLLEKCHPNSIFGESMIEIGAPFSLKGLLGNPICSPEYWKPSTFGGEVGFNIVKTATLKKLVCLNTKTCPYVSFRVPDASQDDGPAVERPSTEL
# Source text: as §1
# [3] = system: carrageenan-induced rat paw oedema; assay: carrageenan-induced rat paw oedema assay; type: in vivo, Sprague–Dawley rats; settings: for Inhibition of acute inflammation % inh / Swel (mean difference in rat paw volume between right and left paw): dose equivalent to 70 mg kg-1 ibuprofen; for Swel (mean difference in rat paw volume between right and left paw): DMSO
# Experimental: According to a priori test results, experiments were conducted on young adult male Sprague–Dawley rats (5 rats per group), weighing 140–170 g. The animals were housed at cages in a temperature controlled (25 ± 1 °C) environment and were fed ad libitum with standard laboratory chow and allowed free access to water. […] The animal protocol is in accordance with the Animal Ethical Care regulations in the Faculty of Pharmacy, Helwan University.
# Compounds (equimolar to the reference drug) were dissolved in DMSO and administrated subcutaneously. One hour later, paw oedema was induced by subplantar injection of 0.1 ml of 1% carrageenan (Sigma-Aldrich, St. Louis, MO) into the right hind paw. Paw volume was measured using a water plethysmometer (Basile, Comerio, Italy). The difference between the right and left paw volume was measured at 1, 2, 3, and 4 h after induction of inflammation.
# The control group (five rats per group) received DMSO subcutaneously and carrageenan in the subplantar region. Results were expressed as percentage inhibition of inflammation.
# [4] = target: T3, 5-LOX (Homo sapiens, UniProt P09917); assay: 5-LOX Inhibitor Screening Assay Kit (Cayman); type: biochemical; settings: in words
# T3 sequence (P09917 1-674): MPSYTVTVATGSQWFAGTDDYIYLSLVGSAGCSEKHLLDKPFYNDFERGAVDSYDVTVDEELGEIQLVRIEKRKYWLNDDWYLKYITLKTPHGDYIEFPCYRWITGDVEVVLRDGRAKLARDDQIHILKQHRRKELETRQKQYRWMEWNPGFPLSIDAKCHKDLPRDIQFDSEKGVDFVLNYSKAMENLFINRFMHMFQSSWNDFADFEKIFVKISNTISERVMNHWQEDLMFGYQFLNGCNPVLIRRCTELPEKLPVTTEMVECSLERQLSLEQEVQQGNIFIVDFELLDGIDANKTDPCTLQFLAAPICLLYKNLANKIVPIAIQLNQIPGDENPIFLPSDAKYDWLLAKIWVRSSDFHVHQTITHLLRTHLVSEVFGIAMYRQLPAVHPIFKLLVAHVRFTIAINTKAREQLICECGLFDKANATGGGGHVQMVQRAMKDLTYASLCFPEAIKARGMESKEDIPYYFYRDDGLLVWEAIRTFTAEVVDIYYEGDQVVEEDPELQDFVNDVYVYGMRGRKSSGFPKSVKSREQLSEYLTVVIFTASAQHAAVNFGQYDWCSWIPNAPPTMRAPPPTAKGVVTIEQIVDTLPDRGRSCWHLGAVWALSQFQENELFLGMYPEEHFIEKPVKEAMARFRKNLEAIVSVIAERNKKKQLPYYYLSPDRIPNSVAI
# Source text: as §1
structure (smiles),measurement,setting,value
"COc1ccc(/C=N/n2nnc3c(sc4nc(C)cc(C)c43)c2=O)cc1 [Compound 8c, 7,9-Dimethyl-3-[(4-methoxy-phenyl-methylene)amino]pyrido[3ˈ,2ˈ:4,5]thieno [3,2-d][1,2,3]triazin-4(3H)-one]",IC50,[1],19 µM
same,IC50,[2],7.7 µM and 7.66 µM
same,affinity towards COX-1 over COX-2,[2],approximately 2 fold
same,Inhibition of acute inflammation % inh,[3]; 1 h,0%
same,Swel (mean difference in rat paw volume between right and left paw),[3]; 1 h after carrageenan,0.246
same,Inhibition of acute inflammation % inh,[3]; 2 h,34.61%
same,Swel (mean difference in rat paw volume between right and left paw),[3]; 2 h after carrageenan,0.17
same,Inhibition of acute inflammation % inh,[3]; 3 h,41.78%
same,Swel (mean difference in rat paw volume between right and left paw),[3]; 3 h after carrageenan,0.316
same,Inhibition of acute inflammation % inh,[3]; 4 h,79.36%
same,Swel (mean difference in rat paw volume between right and left paw),[3]; 4 h after carrageenan,0.13
same,inflammation reduction % (4h),"[3]; rat paw oedema, 4 h time interval, subcutaneous, equimolar to ibuprofen 70 mg kg-1",79.4% and 79.36%
same,melting point,,240 to 242 °C
same,5-LOX IC50 level,[4],micromolar level
